Assay results reported in patent US10717749B2, “Macrocyclic sulfondiimine compounds” (BAYER PHARMA AKTIENGESELLSCHAFT, priority 2015, dated 2020).
Converted amounts (≈) assume the structure as drawn.

How the values were obtained:
HeLa-MaTu-ADR = experiment: Proliferation assay, crystal violet; assay type: cell-based; settings: Homo sapiens, 96 h, 4 days, read-out: Inhibition of HeLa-MaTu-ADR cell proliferation IC50
Description: Cultivated tumour cells (HeLa, human cervical tumour cells, ATCC CCL-2; NCI—H460, human non-small cell lung carcinoma cells, ATCC HTB-177; DU 145, hormone-independent human prostate carcinoma cells, ATCC HTB-81; HeLa-MaTu-ADR, multidrug-resistant human cervical carcinoma cells, EPO-GmbH Berlin; Caco-2, human colorectal carcinoma cells, ATCC HTB-37; B16F10, mouse melanoma cells, ATCC CRL-6475) were plated at a density of 3,500 cells/well (DU145), 3,000 cells/well (HeLa-MaTu-ADR), 1,500 cells/well (NCI—H460), 3,000 cells/well (HeLa), 2,000 cells/well (Caco-2), or 1,000 cells/well (B16F10) in a 96-well multititer plate in 150 μL of their respective growth medium supplemented 10% fetal calf serum. After 24 hours, the cells of one plate (zero-point plate) were stained with crystal violet (see below), the test substances were added in various concentrations (0 μM, as well as in the range of 0.0001-10 μM) employing HP Dispenser. The cells were incubated for 4 days in the presence of test substances. Cell proliferation was determined by staining the cells with crystal violet: the cells were fixed by adding 20 μl/measuring point of an 11% glutaric aldehyde solution for 15 minutes at room temperature. After three washing cycles of the fixed cells with water, the plates were dried at room temperature. The cells were stained by adding 100 μl/measuring point of a 0.1% crystal violet solution DU 145, Caco-2, HeLa (pH 4.5) B16F10, NCI—H460, HeLa-MaTu-ADR. After three washing cycles of the stained cells with water, the plates were dried at room temperature. The dye was dissolved by adding 100 μl per measuring point of a 10% acetic acid solution. The extinction was determined by photometry at a wavelength of 595/550/620 nm depending on the intensity of coloration, usually at 595 nm. The change of cell number, in percent, was calculated by normalization of the measured values to the extinction values of the zero-point plate (=0%) and the extinction of the untreated (0 μM) cells (=100%). The IC50 values (inhibitory concentration at 50% of maximal effect) were determined by means of a 4 parameter fit.

[1] = Thermodynamic solubility in water from powder (Method 4b); assay type: physicochemical; settings: phosphate buffer, aqueous buffer, thermodynamic from solid; pH 6.5, Method 4b
Description: 4b) Thermodynamic Solubility in Water from Powder
The thermodynamic solubility of compounds in water was determined by an equilibrium shake flask method (see for example: E. H. Kerns, L. Di: Drug-like Properties: Concepts, Structure Design and Methods, 276-286, Burlington, Mass., Academic Press, 2008). A saturated solution of the drug was prepared and the solution was mixed for 24 h to ensure that equilibrium was reached. The solution was centrifuged to remove the insoluble fraction and the concentration of the compound in solution was determined using a standard calibration curve. To prepare the sample, 2 mg solid compound was weighed in a 4 mL glass vial. 1 mL phosphate buffer pH 6.5 was added. The suspension was stirred for 24 hrs at room temperature. The solution was centrifuged afterwards. To prepare the sample for the standard calibration, 2 mg solid sample was dissolved in 30 mL acetonitrile. After sonification the solution was diluted with water to 50 mL. Sample and standards were quantified by HPLC with UV-detection. For each sample two injection volumes (5 and 50 μl) in triplicates were made. Three injection volumes (5 μl, 10 μl and 20 μl) were made for the standard. […]
The areas of sample- and standard injections as well as the calculation of the solubility value (in mg/l) were determined by using HPLC software (Waters Empower 2 FR).

Structure (SMILES)	IC50 (HeLa-MaTu-ADR) [nM]	solubility thermodynamic at 24 h [1] [µg/mL]
CS(=N)(=N)Cc1cc2nc(c1)OCCCOc1cc(F)ccc1-c1cc(ncc1F)N2 [Example 1, 15,19-difluoro-8-[(S-methylsulfonodiimidoyl)methyl]-3,4-dihydro-2H,11H-10,6-(azeno)-12,16-(metheno)-1,5,11,13-benzodioxadiazacyclooctadecine]	7.8	
CS(=N)(=N)Cc1cc2cc(c1)OCCCCOc1cc(F)ccc1-c1nc(ncc1F)N2 [Example 5, 16,20-difluoro-9-[(S-methylsulfonodiimidoyl)methyl]-2,3,4,5-tetrahydro-12H-13,17-(azeno)-11,7-(metheno)-1,6,12,14-benzodioxadiazacyclononadecine]		58 (≈ 126 µM)
